Assay results published in patent US5447912A, “Erection-inducing methods and compositions” (priority 1993, dated 1995).
Entries after “also recorded” stand apart in the source; their conditions may differ. Where no end group is shown, it is not given here.

Assays:
human males [1] = details: cited from earlier work; for priapism (background): treatment of impotence
[2] = test system: males suffering from impotence of which severe atherosclerosis is a cause; details: background statement; cited from earlier work
[3] = test system: male suffering from impotence, which is substantially only neurogenic or psychogenic; details: cited from earlier work; for erection after intracavernosal injection where severe atherosclerosis is not involved (background): injection into a corpus cavernosum
[4] = test system: male suffering from impotence, which is substantially only neurogenic or psychogenic; experiment: Intracavernosal injection coupled with sexual stimulation in males with impotence that is substantially only neurogenic or psychogenic; format: in vivo, human; details: for time to erection sufficient for vaginal penetration: 1 ml of 30 μg/ml in phosphate buffered saline, after tourniquet release (5-10 minutes after injection) and sexual stimulation; for dose with which virtually all males achieve an erection sufficient for vaginal penetration: intracavernosal injection in physiologically acceptable diluent; for dose with which virtually all males achieve an erection sufficient for vaginal penetration / dose as low as which many males achieve an erection sufficient for vaginal penetration: coupled with sexual stimulation; for dose as low as which many males achieve an erection sufficient for vaginal penetration: intracavernosal injection
Description: A preferred composition to effect an erection in male suffering from impotence, which is substantially only neurogenic or psychogenic, in accord with the methods herein, is a solution of PHM or VIP at 30 μg/ml in phosphate buffered saline at pH between about 2 and about 4.5, preferably between about 2 and about 3.5 and most preferably about 3, with the PHM or VIP the only substance in the solution that is pharmacologically active in inducing an erection. Preferably 1 ml of the preferred composition is administered as a bolus by injection into a corpus cavernosum while the penis is constricted at its base with a tourniquet. About 5-10 minutes after the injection, the tourniquet is released and, if not already started before the tourniquet is released, sexual stimulation is begun. […] The composition, however, the time between administration and sexual stimulation may be longer, if necessary.

human males [5] = experiment: Side effects of intracavernosal injection to induce an erection; format: in vivo
[6] = test system: males suffering from impotence of which severe atherosclerosis is a cause; experiment: Intracavernosal injection coupled with sexual stimulation in males with impotence of which severe atherosclerosis is a cause; format: in vivo, human
Description: To minimize side-effects when VIP is employed in such a composition, it is preferred that less than about 60 μg of VIP be administered.
Thus, between about 0. […] If necessary, the time between injection and sexual stimulation may be longer, up to several hours.

[7] = test system: normal male (males not suffering from erectile insufficiency); details: cited from earlier work

Molecule | priapism (background) (human males [1]) | induction of erection in impotence due to severe atherosclerosis (background) [2] | erection after intracavernosal injection where severe atherosclerosis is not involved (background) [3] | time to erection sufficient for vaginal penetration [4] | dose with which virtually all males achieve an erection sufficient for vaginal penetration [4] | dose as low as which many males achieve an erection sufficient for vaginal penetration [4] | induction of erection in impotence caused by severe atherosclerosis [6] | other results
COc1ccc(Cc2nccc3cc(OC)c(OC)cc23)cc1OC [papaverine] | often results in priapism | ineffective; also recorded: not susceptible to treatment | cause an erection sufficient for vaginal penetration |  |  |  |  | pain on injection (background) (human males [1]; intracavernosal use): painful, burning sensation in the first two or so minutes after the injection; fibrosis on repeated use (background) (human males [1]; repeated use): undesirable, extensive intracavernous fibrosis
CC(COc1ccccc1)N(CCCl)Cc1ccccc1 (centres unmarked) [phenoxybenzamine] | often results in priapism | not susceptible to treatment | cause an erection sufficient for vaginal penetration |  |  |  |  | carcinogenicity (background) (human males [1]; in vivo): is a carcinogen
Cc1ccc(N(CC2=NCCN2)c2cccc(O)c2)cc1 [phentolamine] |  | not susceptible to treatment | causes an erection sufficient for vaginal penetration |  |  |  |  | duration of resulting erection (background) ([3]; intracavernosal injection, severe atherosclerosis not a cause): significantly shorter duration than that induced by intracavernosal injection of papaverine or phenoxybenzamine
human vasoactive intestinal peptide [VIP] |  | does not induce erections |  | ≤ 5 min | 30 µg | 10 µg | not effective in inducing erections | side-effects observed at higher doses (human males [5]; in vivo): hypotension, increased pulse rate, flushing of the face and trunk; erectile response coupled with visual and/or vibratory sexual stimulation ([7]; as little as 1 μm (at 1 μm/ml of diluent) injected into a corpus cavernosum): facilitates full erection; erectile response without sexual stimulation ([7]; injection of up to 20 μm of VIP (at 20 μm/ml of diluent) into a corpus cavernosum, no sexual stimulation): only slight swelling (slight tumescence) of the penis but not an erection
peptide N-terminal histidine C-terminal methionineamide (HADGVFTSDFSKLLGQLSAKKYLESLM-NH2; UniProt P01282 81-107, looked up) [PHM] |  |  |  | ≤ 5 min | 30 µg | 10 µg | not effective in inducing erections | duration of pharmacological effect compared with VIP ([4]; at the same dosage): somewhat longer lasting pharmacological effect than VIP; priapism (human males [5]; induction of an erection with VIP or PHM by intracavernosal injection): does not entail priapism; also recorded: Priapism does not occur
